pIC50: −log10 of the molar value.
Experiments:
[1] = test system: 4T1 Balb/c mouse breast cancer cell line, orthotopic tumor; assay: In vivo mouse tumor model assay P10
From the text: Assay Conditions and Data Representation: Immunocompetent wildtype Balb/c mice were inoculated with 4T1 Balb/c mouse breast cancer cell line orthotopically in the mammary fat pad (2×10^5 cells) and tumor growth was monitored by caliper measurement. The day when all tumors had reached ca. 150 mm^3 was defined as Day 0; on this day the mice were randomised by tumor size into groups of minimum size 5 animals (mean tumor size ca. 200 mm^3), and treated. Treatments were chosen from 0.9% NaCl (“untreated”), the vascular disrupting agent combretastatin A-4 phosphate (CA4P) at 30 mg/kg administered in 100 μL NaCl (“VDA”), compound of the invention P10 at 4 mg/kg administered in 30 μL DMSO (“P10”), or a combination regime involving treatment with VDA and then 6 hours later with P10 (“VDA+P10”). All treatments were administered intraperitoneally (i.p.). CA4P was re-applied to groups “VDA” and […] once at day 7; no P10 treatment was re-applied to either “P10” or “VDA+P10” groups. Tumor volumes were measured as assay readout.

HeLa cells [2] = assay: In vitro cell viability assay P10 (resazurin); format: cell-based; conditions: Homo sapiens, 48 h, read-out: IC50 antiproliferation / cell viability
Method: (§1) Assay Conditions: Cells were cultured under standard conditions (Gao, L. et al. Cell Chemical Biology 2021, 28, 1-14. https://doi.org/10.1016/j.chembiol.2020.11.007), left to adhere for 24 h, then P10 was added from DMSO stock solution and adjusted to 1% vol DMSO. Cells were incubated under standard conditions for 48 h, then 0.20 volume equivalents of a solution of resazurin in PBS (0.15 mg/mL) were added and incubated for 3 hours, then fluorescence (ex 544 nm, em 590 nm) was detected on a fluorescence platereader. Cell viability (%) is calculated relative to a control experiment with no P10 added, from the fluorescence values.

[3] = test system: MEF cells with genetic knockout of TrxR (TrxR ko); assay: In vitro TrxR knockout assay: TrxR1 knockout MEF viability; format: cell-based, mouse; conditions: MEF TrxR ko versus fl/fl, 48 h, resazurin
Method: (§2) Assay Conditions: TrxR1 knockout and reference mouse embryonic fibroblasts (MEF) were a gift by Marcus Conrad (LMU Munich) and initially isolated from conditional TrxR1 knockout mouse embryos, were immortalised by lentiviral transduction. In vitro deletion of TrxR1 was achieved by Tat-Cre induced recombination and verified by PCR and Immunoblotting for TrxR1 as described in Conrad et al. Cancer Res. 2010, 70, 22, 9505. MEF knockout (ko) and control (fl/fl) cells were cultured under standard conditions, left to adhere for 24 h, then P17 or P18 were added from DMSO stock solution and adjusted to 1% vol DMSO. Cells were incubated under standard conditions for 48 h, then 0.20 volume equivalents of a solution of resazurin in PBS (0.15 mg/mL) were added and incubated for 3 h, then fluorescence (ex 544 nm, em 590 nm) was detected on a fluorescence platereader. Cell viability (%) is calculated relative to a control experiment with no P17 or P18 added, from the fluorescence values.

[4] = test system: control MEF cells (fl/fl); assay: In vitro TrxR knockout assay: control MEF (fl/fl) viability; format: cell-based; conditions: Mus musculus, 48 h, resazurin, read-out: IC50 antiproliferation / cell viability
Method: as §2

A549 cells = assay: Cellular reduction assay P12-P16 (FIG. 6); format: cell-based, human; conditions: 10 μM or 40 μM, 1% vol DMSO, cells under ordinary conditions
Method: Assay Conditions: A549 cells were cultured under standard conditions (Gao, L. et al. Cell Chemical Biology 2021, 28, 1-14. https://doi.org/10.1016/j.chembiol.2020.11.007), left to adhere for 24 h, then compounds were added to 10 μM or 40 μM with 1% vol DMSO. Fluorescence timecourse measurements were acquired as in the chemoreductant assay, with all conditions in triplicates.
Experimental Results and Discussion: F(t) is the raw fluorescence intensity signal increase in arbitrary units with the same detection settings the probes releasing the same cargo. […] This trend is irrespective of the applied concentration in cells and cellular increase is constant over time. This indicates, that P13-P16 are activated more selectively by specific enzymatic cascades (as e.g. Trx/TrxR), whereas P12 may be activated more unspecifically. Thus, compounds of the invention either have the possibility of being useful by giving selective cargo release in pathologically growing cells or cells under abnormal conditions (P13-P16), or offer novel opportunities of cellular delivery of appended cargoes with optimal response kinetics (P12).

HeLa cells [5] = assay: In vitro cell viability assay P21, P22 (resazurin); format: cell-based, human; conditions: 48 h
Method: as §1, with “Conditions: Cells (A549 cells for P19 and P20; HeLa cells for P21 and P22) were cultured” for “Conditions: Cells were cultured”, “h, then P19, P20, P21 or P22 were added from” for “h, then P10 was added from”, “viability (%) was calculated relative” for “viability (%) is calculated relative”, “control experiment (no compound) from the” for “control experiment with no P10 added, from the”

O=C(c1cc2cc(OCCCN3CCC3)ccc2[nH]1)N1C[C@@H](CCl)c2c1cc(OC(=O)N1CCC[C@@H]3CSSC[C@@H]31)c1ccccc21 (racemic) [Compound P10, (S)-3-(5-(3-(azetidin-1-yl)propoxy)-1H-indole-2-carbonyl)-1-(chloromethyl)-2,3-dihydro-1H-benzo[e]indol-5-yl (cis)-hexahydro-[1,2]dithiino[4,5-b]pyridine-1(2H)-carboxylate]
tumor growth (tumor volume), combination with VDA ([1]; CA4P (VDA) 30 mg/kg i.p., then 6 hours later P10 4 mg/kg i.p.): still more significantly slows tumor growth | primary tumor progression (tumor volume) ([1]; single treatment 4 mg/kg i.p., Balb/c mice, 4T1 tumor): significantly slows primary tumor progression | pIC50 (HeLa cells [2]): ~6.70

COc1cc2cc(C(=O)N3C[C@@H](CCl)c4c3cc(OC(=O)N3CCN(C)[C@@H]5CSSCC53)c3ccccc43)[nH]c2c(OC)c1OC (mixture of isomers) [Compound P17, (S)-1-(chloromethyl)-3-(5,6,7-trimethoxy-1H-indole-2-carbonyl)-2,3-dihydro-1H-benzo[e]indol-5-yl (cis)-4-methylhexahydro-[1,2]dithiino[4,5-b]pyrazine-1(2H)-carboxylate]
activation / cytotoxicity in TrxR ko cells compared to control cells [3]: activated less effectively | pIC50 [4]: ~7.00

COc1ccc2c(c1)Oc1cc(OC(=O)N3CCN[C@@H]4CSSC[C@H]43)ccc1C21OC(=O)c2ccccc21 (mixture of isomers) [Compound P12, 3′-methoxy-3-oxo-3H-spiro[isobenzofuran-1,9′-xanthen]-6′-yl-trans-hexahydro-[1,2]dithiino[4,5-b]pyrazine-1(2H)-carboxylate]
cargo release / activation inside cells (raw fluorescence F(t)) (A549 cells): substantially releases its cargo inside cells cultured under ordinary conditions

COc1cc2cc(C(=O)N3C[C@@H](CCl)c4c3cc(OC(=O)N3CCN(C(=O)CCC(=O)N5CCN(C)CC5)[C@@H]5CSSCC53)c3ccccc43)[nH]c2c(OC)c1OC (mixture of isomers) [Compound P18, (S)-1-(chloromethyl)-3-(5,6,7-trimethoxy-1H-indole-2-carbonyl)-2,3-dihydro-1H-benzo[e]indol-5-yl (cis)-4-(4-(4-methylpiperazin-1-yl)-4-oxobutanoyl)hexahydro-[1,2]dithiino[4,5-b]pyrazine-1(2H)-carboxylate]
activation / cytotoxicity in TrxR ko cells compared to control cells [3]: activated less effectively | pIC50 [4]: ~7.00

CC[C@@]1(O)C(=O)OCc2c1cc1n(c2=O)Cc2cc3c(CN(C)C)c(OC(=O)N4CCCC5CSSC[C@H]54)ccc3nc2-1 (mixture of isomers) [Compound P21, (R)-10-((dimethylamino)methyl)-4-ethyl-4-hydroxy-3,14-dioxo-3,4,12,14-tetrahydro-1H-pyrano[3′,4′:6,7]indolizino[1,2-b]quinolin-9-yl (cis)-hexahydro-[1,2]dithiino[4,5-b]pyridine-1(2H)-carboxylate]
tolerability in cells compared with Irinotecan (HeLa cells [5]): equally well-tolerated in cells as the approved cancer prodrug Irinotecan | toxicity to cells compared with SN-38 (HeLa cells [5]): significantly less toxic to cells than the parent compound
